Test results: ChEMBL document CHEMBL3046610, “Synthesis and Biological Activities of Fluorinated Plant Growth Regulators, 4, 4, 4-Trifluoro-3-(3-indolyl)butyric Acids and 4, 4, 4-Trifluoro-3-(2-indolyl)butyric Acid Bearing a Methyl Group on the Indole Nucleus” (1997)
Calls of active or inactive are those of the source. The calls are words filed in the database; no cut-off is given here.

Tests used:
Oryza sativa [1] = test: Growth promoting activity in Oryza sativa (rice) assessed as increase in shoot length at 1 x 10^-3 M relative to control; type: functional
Oryza sativa [2] = test: Growth promoting activity in Oryza sativa (rice) assessed as increase in root length at 1 x 10^-4 M relative to control; type: functional
Oryza sativa [3] = test: Growth promoting activity in Oryza sativa (rice) assessed as increase in root length at 1 x 10^-3 M relative to control; type: functional, organism-based
Lactuca sativa [4] = test: Growth promoting activity in Lactuca sativa (lettuce) assessed as increase in root length at 1 x 10^-5 M relative to control; type: functional, organism-based
Lactuca sativa [5] = test: Growth promoting activity in Lactuca sativa (lettuce) assessed as increase in root length at 1 x 10^-4 M relative to control; type: functional, organism-based
Brassica rapa [6] = test: Growth promoting activity in Brassica rapa (Chinese cabbage) assessed as increase in root length at 1 x 10^-3 M relative to control; type: functional, organism-based
Oryza sativa [7] = test: Growth promoting activity in Oryza sativa (rice) assessed as increase in shoot length at 1 x 10^-6 M relative to control; type: functional
Oryza sativa [8] = test: Growth promoting activity in Oryza sativa (rice) assessed as increase in root length at 1 x 10^-6 M relative to control; type: functional
Oryza sativa [9] = test: Growth promoting activity in Oryza sativa (rice) assessed as increase in shoot length at 1 x 10^-5 M relative to control; type: functional
Oryza sativa [10] = test: Growth promoting activity in Oryza sativa (rice) assessed as increase in root length at 1 x 10^-5 M relative to control; type: functional
Oryza sativa [11] = test: Growth promoting activity in Oryza sativa (rice) assessed as increase in shoot length at 1 x 10^-4 M relative to control; type: functional
Brassica rapa [12] = test: Growth promoting activity in Brassica rapa (Chinese cabbage) assessed as increase in root length at 1 x 10^-4 M relative to control; type: functional
Brassica rapa [13] = test: Growth promoting activity in Brassica rapa (Chinese cabbage) assessed as increase in root length; type: functional, organism-based

Cc1ccc2[nH]cc(C(CC(=O)O)C(F)(F)F)c2c1 (racemic)
Activity (Oryza sativa [1]): 31.9%
Activity (Oryza sativa [2]): 331.1%
Activity (Oryza sativa [3]): inactive
Activity (Lactuca sativa [4]): Active
Activity (Lactuca sativa [5]): Active
Activity (Brassica rapa [6]): inactive
Activity (Oryza sativa [7]): 100.5%
Activity (Oryza sativa [8]): 168.5%
Activity (Oryza sativa [9]): 105.5%
Activity (Oryza sativa [10]): 382.4%
Activity (Oryza sativa [11]): 90%

Cc1ccc2c(C(CC(=O)O)C(F)(F)F)c[nH]c2c1 (racemic)
Activity (Oryza sativa [1]): 31.5%
Activity (Oryza sativa [2]): 311.4%
Activity (Oryza sativa [3]): inactive
Activity (Lactuca sativa [4]): Active
Activity (Lactuca sativa [5]): Active
Activity (Brassica rapa [6]): inactive
Activity (Oryza sativa [7]): 103.3%
Activity (Oryza sativa [8]): 172%
Activity (Oryza sativa [9]): 106.2%
Activity (Oryza sativa [10]): 377.5%
Activity (Oryza sativa [11]): 95.9%
fold change (FC) (Brassica rapa [12]): 2.5
Activity (Brassica rapa [13]): Active

Cc1c(C(CC(=O)O)C(F)(F)F)[nH]c2ccccc12 (racemic)
Activity (Oryza sativa [1]): 38.2%
Activity (Oryza sativa [2]): 433.3%
Activity (Oryza sativa [3]): inactive
Activity (Lactuca sativa [4]): Active
Activity (Lactuca sativa [5]): inactive
Activity (Brassica rapa [6]): inactive
Activity (Oryza sativa [7]): 98.4%
Activity (Oryza sativa [8]): 134.6%
Activity (Oryza sativa [9]): 106.2%
Activity (Oryza sativa [10]): 266%
Activity (Oryza sativa [11]): 99%
fold change (FC) (Brassica rapa [12]): 2.5
Activity (Brassica rapa [13]): Active

O=C(O)CC(c1c[nH]c2ccccc12)C(F)(F)F (racemic)
Activity (Oryza sativa [1]): 35.6%
Activity (Oryza sativa [2]): 199.5%
Activity (Oryza sativa [3]): inactive
Activity (Oryza sativa [7]): 99.2%
Activity (Oryza sativa [8]): 128.9%
Activity (Oryza sativa [9]): 99%
Activity (Oryza sativa [10]): 290.1%
Activity (Oryza sativa [11]): 76.7%

Cc1cccc2c(C(CC(=O)O)C(F)(F)F)c[nH]c12 (racemic)
Activity (Oryza sativa [1]): 36.9%
Activity (Oryza sativa [2]): 224.4%
Activity (Oryza sativa [3]): inactive
Activity (Lactuca sativa [4]): Active
Activity (Lactuca sativa [5]): Active
Activity (Brassica rapa [6]): inactive
Activity (Oryza sativa [7]): 96%
Activity (Oryza sativa [8]): 126%
Activity (Oryza sativa [9]): 112.8%
Activity (Oryza sativa [10]): 277.1%
Activity (Oryza sativa [11]): 83.3%
fold change (FC) (Brassica rapa [12]): 2.5
Activity (Brassica rapa [13]): Active

Cc1cccc2[nH]cc(C(CC(=O)O)C(F)(F)F)c12 (racemic)
Activity (Oryza sativa [1]): 33.7%
Activity (Oryza sativa [2]): 274.6%
Activity (Oryza sativa [3]): inactive
Activity (Lactuca sativa [4]): Active
Activity (Lactuca sativa [5]): Active
Activity (Brassica rapa [6]): inactive
Activity (Oryza sativa [7]): 103.6%
Activity (Oryza sativa [8]): 172.5%
Activity (Oryza sativa [9]): 102.7%
Activity (Oryza sativa [10]): 357.5%
Activity (Oryza sativa [11]): 86.4%
fold change (FC) (Brassica rapa [12]): 2.5
Activity (Brassica rapa [13]): Active

Cn1cc(C(CC(=O)O)C(F)(F)F)c2ccccc21 (racemic)
Activity (Oryza sativa [1]): 46%
Activity (Oryza sativa [2]): 153.4%
Activity (Oryza sativa [3]): inactive
Activity (Lactuca sativa [4]): inactive
Activity (Lactuca sativa [5]): Active
Activity (Brassica rapa [6]): inactive
Activity (Oryza sativa [7]): 94.6%
Activity (Oryza sativa [8]): 136.2%
Activity (Oryza sativa [9]): 105.3%
Activity (Oryza sativa [10]): 211.1%
Activity (Oryza sativa [11]): 86.2%
Activity (Brassica rapa [13]): inactive

Cc1[nH]c2ccccc2c1C(CC(=O)O)C(F)(F)F (racemic)
Activity (Oryza sativa [1]): 36.6%
Activity (Oryza sativa [2]): 168%
Activity (Oryza sativa [3]): inactive
Activity (Lactuca sativa [4]): inactive
Activity (Lactuca sativa [5]): inactive
Activity (Brassica rapa [6]): inactive
Activity (Oryza sativa [7]): 98.8%
Activity (Oryza sativa [8]): 111.8%
Activity (Oryza sativa [9]): 103.2%
Activity (Oryza sativa [10]): 242%
Activity (Oryza sativa [11]): 84%
